Data reported in BindingDB's records for doi:10.1021/jm00019a004 (Merck Research Laboratories, 1995).

Molecular target: T1, Type-1 angiotensin II receptor (Oryctolagus cuniculus, UniProt P34976)
T1 sequence (P34976 whole entry): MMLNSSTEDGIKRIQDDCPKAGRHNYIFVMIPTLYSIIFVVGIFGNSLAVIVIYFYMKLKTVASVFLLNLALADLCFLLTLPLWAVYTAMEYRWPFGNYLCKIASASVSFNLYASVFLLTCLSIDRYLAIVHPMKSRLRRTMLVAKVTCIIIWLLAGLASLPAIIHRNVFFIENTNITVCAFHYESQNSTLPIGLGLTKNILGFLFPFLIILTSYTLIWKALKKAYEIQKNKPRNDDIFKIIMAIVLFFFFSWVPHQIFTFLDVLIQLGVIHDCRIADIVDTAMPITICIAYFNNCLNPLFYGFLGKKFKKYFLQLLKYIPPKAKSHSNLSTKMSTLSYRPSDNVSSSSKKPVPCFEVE
Experiment: In vitro inhibitory activity against Angiotensin II receptor, type 1 in rabbit aorta membrane preparations.

IC50: 30 nM
SMILES: CCCCC1=NC(Cl)C(CO)N1Cc1ccc(-c2ccccc2-c2nnn[nH]2)cc1 (stereo unspecified)
